# Calls of active or inactive are those of the source. No cut-off for these calls is given here.
# Experiments:
# Spodoptera frugiperda [1] = assay: Growth inhibitory activity against first-instar larval stage of Spodoptera frugiperda (fall armyworm) fed with compound incorporated diet assessed as weight gained at 35 ug/ml after 7 days (reference value: 100%); assay type: functional; design: scale not given: the % may be the effect or the level left
# Spodoptera frugiperda [2] = assay: Growth inhibitory activity against first-instar larval stage of Spodoptera frugiperda (fall armyworm) fed with compound incorporated diet assessed as weight gained at 20 ug/ml after 7 days (reference value: 100%); assay type: functional; design: scale not given: the % may be the effect or the level left
# Spodoptera frugiperda [3] = assay: Growth inhibitory activity against first-instar larval stage of Spodoptera frugiperda (fall armyworm) fed with compound incorporated diet assessed as weight gained at 5 ug/ml after 7 days (reference value: 100%); assay type: functional; design: scale not given: the % may be the effect or the level left
# Spodoptera frugiperda [4] = assay: Growth inhibitory activity against Spodoptera frugiperda (fall armyworm) larvae fed with compound containing diet assessed as relative growth index at 10 ug/ml (reference value: 1.0 no_unit); assay type: functional
# Spodoptera frugiperda [5] = assay: Growth inhibitory activity against Spodoptera frugiperda (fall armyworm) larvae fed with compound containing diet assessed as relative growth index at 5 ug/ml (reference value: 1.0 no_unit); assay type: functional
# Spodoptera frugiperda [6] = assay: Growth inhibitory activity against Spodoptera frugiperda (fall armyworm) larvae fed with compound containing diet assessed as growth index at 35 ug/ml (reference value: 0.95 +/-0.02 no_unit); assay type: functional
# Drosophila melanogaster [7] = assay: Insecticidal activity against Drosophila melanogaster larvae fed with compound incorporated diet assessed as mortality after 72 hr by not choice test; assay type: functional
# Spodoptera frugiperda [8] = assay: Growth inhibitory activity against Spodoptera frugiperda (fall armyworm) larvae fed with compound containing diet assessed as relative growth index at 35 ug/ml (reference value: 1.0 no_unit); assay type: functional
# Spodoptera frugiperda [9] = assay: Growth inhibitory activity against Spodoptera frugiperda (fall armyworm) larvae fed with compound containing diet assessed as relative growth index at 20 ug/ml (reference value: 1.0 no_unit); assay type: functional
# Spodoptera frugiperda [10] = assay: Growth inhibitory activity against Spodoptera frugiperda (fall armyworm) larvae fed with compound containing diet assessed as growth index at 10 ug/ml (reference value: 0.95 +/-0.02 no_unit); assay type: functional
# Spodoptera frugiperda [11] = assay: Growth inhibitory activity against Spodoptera frugiperda (fall armyworm) larvae fed with compound containing diet assessed as growth index at 5 ug/ml (reference value: 0.95 +/-0.02 no_unit); assay type: functional
# Spodoptera frugiperda [12] = assay: Growth inhibitory activity against Spodoptera frugiperda (fall armyworm) larvae fed with compound containing diet assessed as reduction in adult emergence at 35 ug/ml; assay type: functional
# Spodoptera frugiperda [13] = assay: Growth inhibitory activity against Spodoptera frugiperda (fall armyworm) larvae fed with compound containing diet assessed as reduction in adult emergence at 20 ug/ml; assay type: functional
# Spodoptera frugiperda [14] = assay: Growth inhibitory activity against Spodoptera frugiperda (fall armyworm) larvae fed with compound containing diet assessed as reduction in pupae weight at 25 ug/ml; assay type: functional, organism-based
# Spodoptera frugiperda [15] = assay: Growth inhibitory activity against Spodoptera frugiperda (fall armyworm) larvae fed with compound containing diet assessed as reduction in survival pupation at >10 ug/ml; assay type: functional
# Spodoptera frugiperda [16] = assay: Growth inhibitory activity against po dosed fourth-instar larvae of Spodoptera frugiperda (fall armyworm) assessed as proportion of prothetely appearance of precocious pupal structure in larvae after 48 to 72 hr; assay type: functional; design: scale not given: the % may be the effect or the level left
# Spodoptera frugiperda [17] = assay: Growth inhibitory activity against po dosed Spodoptera frugiperda (fall armyworm) larvae assessed as promotion of apolysis to fifth instar with ecdysis inhibition at 5 to 20 ug/ml; assay type: functional, organism-based
# Drosophila melanogaster [18] = assay: Insecticidal activity against Drosophila melanogaster larvae fed with compound incorporated diet assessed as mortality at 50 ug/ml after 72 hr by not choice test (reference value: 0%); assay type: functional
# Drosophila melanogaster [19] = assay: Insecticidal activity against Drosophila melanogaster larvae fed with compound incorporated diet assessed as mortality at 20 ug/ml after 72 hr by not choice test (reference value: 0%); assay type: functional
# Drosophila melanogaster [20] = assay: Insecticidal activity against Drosophila melanogaster larvae fed with compound incorporated diet assessed as mortality at 10 ug/ml after 72 hr by not choice test (reference value: 0%); assay type: functional
# Spodoptera frugiperda [21] = assay: Acute toxicity against last larval stage of Spodoptera frugiperda (fall armyworm) assessed as mortality applied topically onto abdomen measured after 7 days; assay type: functional; conditions: topical, 168 h
# Spodoptera frugiperda [22] = assay: Insecticidal activity against first-instar larval stage of Spodoptera frugiperda (fall armyworm) fed with compound incorporated diet assessed as mortality at 40 ug/ml after 7 days; assay type: functional, organism-based
# Spodoptera frugiperda [23] = assay: Insecticidal activity against first-instar larval stage of Spodoptera frugiperda (fall armyworm) fed with compound incorporated diet assessed as mortality at 50 ug/ml after 21 days (reference value: 5.6%); assay type: functional; conditions: 504 h
# Spodoptera frugiperda [24] = assay: Insecticidal activity against first-instar larval stage of Spodoptera frugiperda (fall armyworm) fed with compound incorporated diet assessed as mortality at 35 ug/ml after 21 days (reference value: 5.6%); assay type: functional; conditions: 504 h
# Spodoptera frugiperda [25] = assay: Growth inhibitory activity against first-instar larval stage of Spodoptera frugiperda (fall armyworm) fed with compound incorporated diet assessed as length gained at 20 ug/ml after 21 days (reference value: 100%); assay type: functional; design: scale not given: the % may be the effect or the level left
# Spodoptera frugiperda [26] = assay: Growth inhibitory activity against first-instar larval stage of Spodoptera frugiperda (fall armyworm) fed with compound incorporated diet assessed as length gained at 10 ug/ml after 21 days (reference value: 100%); assay type: functional
# Spodoptera frugiperda [27] = assay: Growth inhibitory activity against first-instar larval stage of Spodoptera frugiperda (fall armyworm) fed with compound incorporated diet assessed as weight gained at 50 ug/ml after 21 days (reference value: 100%); assay type: functional
# Spodoptera frugiperda [28] = assay: Growth inhibitory activity against first-instar larval stage of Spodoptera frugiperda (fall armyworm) fed with compound incorporated diet assessed as weight gained at 5 ug/ml after 21 days (reference value: 100%); assay type: functional
# Spodoptera frugiperda [29] = assay: Insecticidal activity against first-instar larval stage of Spodoptera frugiperda (fall armyworm) fed with compound incorporated diet assessed as mortality at 20 ug/ml after 7 days (reference value: 5.6%); assay type: functional; conditions: 168 h
# Spodoptera frugiperda [30] = assay: Insecticidal activity against first-instar larval stage of Spodoptera frugiperda (fall armyworm) fed with compound incorporated diet assessed as mortality at 35 ug/ml after 7 days (reference value: 5.6%); assay type: functional; conditions: 168 h
# Spodoptera frugiperda [31] = assay: Insecticidal activity against first-instar larval stage of Spodoptera frugiperda (fall armyworm) fed with compound incorporated diet assessed as mortality at 5 ug/ml after 7 days (reference value: 5.6%); assay type: functional; conditions: 168 h
# Spodoptera frugiperda [32] = assay: Insecticidal activity against first-instar larval stage of Spodoptera frugiperda (fall armyworm) fed with compound incorporated diet assessed as mortality at 20 ug/ml after 21 days (reference value: 5.6%); assay type: functional; conditions: 504 h
# Spodoptera frugiperda [33] = assay: Insecticidal activity against first-instar larval stage of Spodoptera frugiperda (fall armyworm) fed with compound incorporated diet assessed as mortality at 10 ug/ml after 21 days (reference value: 5.6%); assay type: functional; conditions: 504 h
# Spodoptera frugiperda [34] = assay: Growth inhibitory activity against first-instar larval stage of Spodoptera frugiperda (fall armyworm) fed with compound incorporated diet assessed as length gained at 35 ug/ml after 21 days (reference value: 100%); assay type: functional
# Spodoptera frugiperda [35] = assay: Growth inhibitory activity against first-instar larval stage of Spodoptera frugiperda (fall armyworm) fed with compound incorporated diet assessed as length gained at 35 ug/ml after 7 days (reference value: 100%); assay type: functional
# Spodoptera frugiperda [36] = assay: Growth inhibitory activity against first-instar larval stage of Spodoptera frugiperda (fall armyworm) fed with compound incorporated diet assessed as length gained at 50 ug/ml after 7 days (reference value: 100%); assay type: functional
# Spodoptera frugiperda [37] = assay: Growth inhibitory activity against first-instar larval stage of Spodoptera frugiperda (fall armyworm) fed with compound incorporated diet assessed as length gained at 20 ug/ml after 7 days (reference value: 100%); assay type: functional
# Spodoptera frugiperda [38] = assay: Growth inhibitory activity against first-instar larval stage of Spodoptera frugiperda (fall armyworm) fed with compound incorporated diet assessed as length gained at 10 ug/ml after 7 days (reference value: 100%); assay type: functional
SMILES,Activity (Spodoptera frugiperda [1]),Activity (Spodoptera frugiperda [2]),Activity (Spodoptera frugiperda [3]),Growth_index (Spodoptera frugiperda [4]),Growth_index (Spodoptera frugiperda [5]),Growth_index (Spodoptera frugiperda [6]),LC50 (Drosophila melanogaster [7]),Growth_index (Spodoptera frugiperda [8]),Growth_index (Spodoptera frugiperda [9]),Growth_index (Spodoptera frugiperda [10]),Growth_index (Spodoptera frugiperda [11]),inhibition at 35 µg/mL (Spodoptera frugiperda [12]),inhibition at 20 µg/mL (Spodoptera frugiperda [13]),inhibition (Spodoptera frugiperda [14]),inhibition (INH) (Spodoptera frugiperda [15]),Activity (Spodoptera frugiperda [16]),Activity (Spodoptera frugiperda [17]),mortality at 20 µg/mL (Drosophila melanogaster [19]),mortality at 10 µg/mL (Drosophila melanogaster [20]),LD50 (Spodoptera frugiperda [21]),also measured
C=CC(C)(C)C1=C(O)C(=O)c2ccccc2C1=O,5%,15.9%,47.4%,0.45,0.69,0.09,15.8 µg/mL,0.1,0.12,0.41,0.71,0%,0%,Active,0%,30%,Active,65%,30%,3.64 µg/mL,mortality at 50 µg/mL (Drosophila melanogaster [18]): 100%; mortality (Spodoptera frugiperda [22]): Active; mortality at 50 µg/mL (Spodoptera frugiperda [23]): 100%; mortality at 35 µg/mL (Spodoptera frugiperda [24]): 100%; Activity (Spodoptera frugiperda [25]): 4.1%; Length gained relative to control (Spodoptera frugiperda [26]): 39.8%; Weight gain relative to control (Spodoptera frugiperda [27]): 0%; Larval weight gain relative to control (Spodoptera frugiperda [28]): 35.6%; mortality at 20 µg/mL (Spodoptera frugiperda [29]): 91.7%; mortality at 35 µg/mL (Spodoptera frugiperda [30]): 95.8%; mortality at 5 µg/mL (Spodoptera frugiperda [31]): 41.7%; mortality at 20 µg/mL (Spodoptera frugiperda [32]): 98%; mortality at 10 µg/mL (Spodoptera frugiperda [33]): 41.7%; Length gained relative to control (Spodoptera frugiperda [34]): 4.1%; Length gained relative to control (Spodoptera frugiperda [35]): 10%; Length gain relative to control (Spodoptera frugiperda [36]): 0%; Length gained relative to control (Spodoptera frugiperda [37]): 20.8%; Larval length gained (% of control) (Spodoptera frugiperda [38]): 24.2%
C=C[C@]1(C)CC[C@H]2C(=CC[C@@H]3[C@](C)(CO)CC[C@@H]4C[C@@]432)C1,1.4%,6.8%,25.1%,0.25,0.45,0.09,9.2 µg/mL,0.1,0.19,0.21,0.41,0%,0%,Active,0%,30%,Active,98%,30%,3.02 µg/mL,mortality (Spodoptera frugiperda [22]): Active; mortality at 50 µg/mL (Spodoptera frugiperda [23]): 100%; mortality at 35 µg/mL (Spodoptera frugiperda [24]): 100%; Activity (Spodoptera frugiperda [25]): 0%; Length gained relative to control (Spodoptera frugiperda [26]): 30.8%; Weight gain relative to control (Spodoptera frugiperda [27]): 0%; Larval weight gain relative to control (Spodoptera frugiperda [28]): 20.1%; mortality at 20 µg/mL (Spodoptera frugiperda [29]): 55.8%; mortality at 35 µg/mL (Spodoptera frugiperda [30]): 98.4%; mortality at 5 µg/mL (Spodoptera frugiperda [31]): 20.8%; mortality at 20 µg/mL (Spodoptera frugiperda [32]): 100%; mortality at 10 µg/mL (Spodoptera frugiperda [33]): 68.6%; Length gained relative to control (Spodoptera frugiperda [34]): 0%; Length gained relative to control (Spodoptera frugiperda [35]): 7.5%; Length gain relative to control (Spodoptera frugiperda [36]): 0%; Length gained relative to control (Spodoptera frugiperda [37]): 18.3%; Larval length gained (% of control) (Spodoptera frugiperda [38]): 39%
